Source: US11219625B2, “Inhibitors of N-linked glycosylation and methods using same” (YALE UNIVERSITY, priority 2015, dated 2022)

Legend:
[1] = test system: lipid linked oligosaccharides (LLOs); assay: FACE analysis of lipid linked oligosaccharides; format: cell-based; conditions: p<0.01
Method: Fluorophore assisted carbohydrate electrophoresis (FACE) was performed as previously described (Gao, et al., Glycobiology 2002, 12, 353-360; Gao, et al., J Biol Chem 2005, 280, 17901-17909). Control (Ac-Gln-Tyr-Thr-CONH2) and acceptor (Ac-Asn-Tyr-Thr-CONH2) peptides were used for permeabilized cell experiments. Metabolic labeling of Hela cells, transfection of prosaposin (pSAP) and steroid hormone binding globulin (SHBG) vectors, and knockdown of SIT3A and STT3B to monitor N-linked glycosylation knockdown were performed as described (Shrimal, et al., J Cell Biol 2013, 201, 81-95). Western blot analysis was performed as previously described (Bennett, et al., Transl Oncol 2013, 6, 382-391). The following primary antibodies were used: rabbit anti-EGFR (sc-03; Santa Cruz Biotechnology; 1:1000), rabbit anti-phospho (Tyr1173) EGF Receptor (Cell Signaling; 1:1000), rabbit anti-p21 Waf1/Cip1 (12D1; Cell Signaling; 1:1000), rabbit anti-Cyclin D1 (Cell Signaling; 1:1000), mouse anti-β-Actin (8H10D10; Cell Signaling; 1:1000). For phospho-protein array analysis, PC9 and A549 cells were cultured in 6-well plates in serum-containing medium and treated with or without 10 μM NGI-1 for 24 hours. […]

EGFR = assay: Western blot of EGFR phosphorylation, PC9 cells; format: cell-based; conditions: PC9, 10 μM NGI-1, 1 day
Method: FIGS. 4A-4H illustrate the finding that NGI-1 blocks RTK driven proliferation. FIG. 4A illustrates western blot analysis of EGFR phosphorylation (Y1173) and gel mobility in PC9 (EGFR-mutant) and A549 (k-ras mutant) NSCLC cells after 10 μM NGI-1 treatment for 24 h. […] Actin expression was used as a control for protein loading. FIG. 4B illustrates MTT assays results of PC9 following treatment with 10 μM NGI-1 or 1 μM tunicamycin for a total of 5 d. Relative proliferation id reported in fold increase from day 0. FIG. 4C illustrates MTT assays results of A549 following treatment with 10 μM NGI-1 or 1 μM tunicamycin for a total of 5 d. Relative proliferation id reported in fold increase from day 0. FIG. 4D illustrates protein phosphorylation profiles of PC9 cells analyzed by phospho-protein array to assess the response of PC9 to 10 μM NGI-1 for 24 h. FIG. 4E illustrates protein phosphorylation profiles of A549 cells analyzed by phospho-protein array to assess the response of A549 to 10 μM NGI-1 for 24 h. FIG. 4F illustrates western blot analysis of FGFR phosphorylation (Y653/654) and gel mobility for H1581 (TKI sensitive) and H2444 (TKI insensitive) NSCLC cell lines. […] FIG. 4G illustrates MTT assays for H1581 cells treated with 10 μM NGI-1 for 5 d. Asterisk (***) indicates a significant difference p<0.001 for MTT. FIG. 4H illustrates MTT assays for H2444 cells treated with 10 μM NGI-1 for 5 d. […]

cyclin D1 = assay: Cyclin D1 expression (qRT-PCR, western blot), A549; format: cell-based, human
Method: FIGS. 5A-5G illustrate NGI-1 induces G1 arrest and senescence in EGFR addicted tumor cells. FIG. 5A illustrates cell cycle distribution of PC9 cells after 24 h NGI-1 treatment for 24 h determined by flow cytometry. […] FIG. 5B illustrates cell cycle distribution of A549 cells after 24 h NGI-1 treatment for 24 h determined by flow cytometry. FIG. 5C illustrates western blot time course of cyclin D1 expression in PC9 and A549 cells after NGI-1 treatment. FIG. 5D illustrates quantitative real-time PCR analysis of PC9 and A549 cells. A time course of cyclin D1 expression levels relative to GAPDH is represented. […] FIG. 5F illustrates senescence of PC9 cells explored by: cell autofluorescence, measured by flow cytometry using a detector for PE/YFP; lipofuscin accumulation, detected by confocal laser scanning microscopy using an excitation laser of 405 nm with acquired signals from spectrums of yellow 575-620 nm; and morphology changes, enlarged vs. flattened. […] Significance was calculated using a T test (*p<0.05. **p<0.01). FIG. 5G illustrates senescence of A549 cells explored by: cell autofluorescence, measured by flow cytometry using a detector for PE/YFP; lipofuscin accumulation, detected by confocal laser scanning microscopy using an excitation laser of 405 nm with acquired signals from spectrums of yellow 575-620 nm; and morphology changes, enlarged vs. flattened. […]

With `Cc1cnc(NC(=O)c2cc(S(=O)(=O)N(C)C)ccc2N2CCCC2)s1` [NGI-1, 5-(N,N-Dimethylsulfamoyl)-N-(5-methylthiazol-2-yl)-2-(pyrrolidin-1-yl)benzamide] the “increase of Glc3Man9Glcnac2 LLO levels” value [1] was 31%, the EGFR phosphorylation (EGFR) was “blocked phosphorylation of KD mutant EGFR” and the “cyclin D1 mRNA and protein levels” value (cyclin D1) was “not significantly affected”.
